Results: patent US4610994A, “1,2,3-triazole anticonvulsant drugs” (priority 1984, dated 1986)
“And” between values parts separate entries of the source, which are not always exact repeats. Equal values may be shown once. “Also recorded” adds a separate entry of the source. Read-outs that look alike come from different tables or passages of the source.

What was measured:
[1] = test system: maximal electro-shock seizure (MES) and subcutaneous pentylenetetrazole (Metrazole) seizure threshold (scMet); experiment: Phase I anticonvulsant screening (MES test and scMet test); assay type: in vivo, mouse; settings: at effective dose levels (Class I) or 300 mg/kg (8, 13)
[2] = test system: subcutaneous Bicuculline seizures; experiment: subcutaneous Bicuculline Seizure Threshold Test (sc Bic) in mice; assay type: in vivo, mice (male albino, CF No. 1); settings: mice i.p.; Compound 10 up to 300 mg/kg
Protocol: (§3) All animals were allowed free access to both food (S/L Custom Lab Diet-7) and water, except when they were removed from their cages for the experimental procedure.
(§4) The drugs were administered either orally or intraperitoneally in a volume of 0.01 ml/g body weight in mice and 0.04 ml/10 g in rats. All tests were conducted at the previously determined time of peak drug effect.
(§5) The profile of anticonvulsant activity for each substance was established by five tests: one electrical and four chemical. The electrical test employed was the maximal electroshock seizure pattern test. […] Except for the sc Strych Test, these tests measure the ability of anticonvulsants to afford complete protection against threshold seizures induced by the subcutaneous injection of the CD97 of the convulsant agent.
(§6) All convulsants were administered subcutaneously into a loose fold of skin on the back of the neck in a volume of 0.01 ml/g body weight in mice; Metrazol was injected in a volume of 0.02 ml/10 g body weight in rats. The convulsant drugs were administered at the previously determined time of peak anticonvulsant action of the drug under study. […] Except for strychnine, absence of a five-second episode of clonic spasms (threshold seizure) was taken as protection. In the case of strychnine, complete abolition of the hindleg tonic extension was taken as protection.

[3] = test system: subcutaneous Picrotoxin seizures; experiment: subcutaneous Picrotoxin Seizure Threshold Test (sc Pic) in mice; assay type: in vivo, mice (male albino, CF No. 1); settings: mice i.p.; Compound 10 up to 300 mg/kg
Protocol: as §3, §4, §5, §6

[4] = test system: subcutaneous Strychnine seizures; assay type: in vivo, mice (male albino, CF No. 1); settings: mice i.p.; Compound 10 up to 300 mg/kg
Protocol: as §3, §4, §5, §6

[5] = loss of righting reflex (HD50) in mice i.p.; parameters: species or system mice (male albino, CF No. 1); settings: mouse, in vivo, ip
Protocol: (§7) The profile of toxicity for each test drug was established by the following procedures: Firstly, the minimal neurotoxic dose (TD50) was determined by the rotorod procedure at the time of peak neurotoxic effect. When a normal mouse is placed on a knurled rod one inch in diameter rotating at a speed of six rpm it can maintain its equilibrium for long periods of time. Neurological deficit is indicated by inability of the mouse to maintain its equilibrium for one minute in each of three trials on this rotating rod. […] The HD50 represents the median dose at which 50% of animals lose their righting reflex.

[6] = five-day oral LD3 in rats; assay type: in vivo
Protocol: (§1) Phase VII studies of Compound 10 included five-day LD3, five-day tolerance studies, and effect of chronic administration on the liver microsomal enzyme system. The five-day oral LD3 of Compound 10 is <300 mg/kg in male rats and >300 mg/kg in female rats.
(§2) Thus, the estimated five-day LD3 for Compound 10 is <300 mg/kg in male rats and >300 but <1000 mg/kg in female rats.

[7] = test system: maximal electroshock seizures; experiment: five-day tolerance study in rats (MES test); assay type: in vivo
Protocol: as §1, §2

hexobarbital sleep time = hexobarbital sleep time after chronic administration in rats; assay type: in vivo
Protocol: as §1

cytochrome P-450 = experiment: effect of chronic administration on liver microsomal cytochrome P-450; assay type: in vivo, rats
Protocol: as §1, §2

[8] = test system: p-nitroanisole O-demethylase; experiment: effect of chronic administration on liver p-nitroanisole O-demethylase; assay type: in vivo, rats
Protocol: as §1, §2

cytochrome C reductase = experiment: effect of chronic administration on liver cytochrome C reductase; assay type: in vivo, rats
Protocol: as §1, §2

[9] = oral absorption in mice from oral/i.p. ratios; assay type: in vivo
Text: The extent of oral absorption can be determined from the ratio of the oral ED50/i.p. […] The oral TD50/i.p. TD50 and oral ED50/i.p.

in vivo [10] = settings: mouse, po
Protocol: as §3, §4, §5

in vivo [11] = settings: mouse
Protocol: as §3, §4, §5, §6

in vivo [12] = settings: mouse; remark: listed apart in the source
Protocol: as §3, §4
(§8) The profile of toxicity for each test drug was established by the following procedures: Firstly, the minimal neurotoxic dose (TD50) was determined by the rotorod procedure at the time of peak neurotoxic effect. When a normal mouse is placed on a knurled rod one inch in diameter rotating at a speed of six rpm it can maintain its equilibrium for long periods of time. Neurological deficit is indicated by inability of the mouse to maintain its equilibrium for one minute in each of three trials on this rotating rod. Neurological deficit in rats is indicated by ataxia, loss of placing response and muscle tone.

in vivo [13] = settings: mouse, ip
[14] = 24-hour lethality (LD50) in mice i.p.
[15] = test system: maximal electroshock seizures; experiment: maximal electroshock seizure (MES) pattern test in mice; settings: for ED97 / Safety ratio (TD3/ED97): MES
Protocol: as §3, §4, §5

[16] = maximal electroshock seizure (MES) pattern test in rats; settings: rat, in vivo, po, Safety ratio (TD3/ED97), rats, MES
Protocol: as §3, §4, §5

[17] = test system: maximal electroshock seizures; experiment: as above
Protocol: as §3, §4, §5

[18] = test system: subcutaneous Metrazol seizures; experiment: subcutaneous Metrazol Seizure Threshold Test (sc Met) in mice; settings: for ED97: sc Met
Protocol: as §3, §4, §5, §6

[19] = test system: subcutaneous Metrazol seizures; experiment: subcutaneous Metrazol Seizure Threshold Test (sc Met) in rats
Protocol: as §3, §4, §5, §6

[20] = Phase III toxicity profile (overt signs and symptoms) in mice i.p.
Protocol: as §7

[21] = minimal neurotoxicity (ataxia, loss of placing response and muscle tone) in rats; settings: for TD3: oral
Protocol: as §3, §4, §8

[22] = rats, acute (single dose) control group
[23] = mice, i.p., 95% confidence interval
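Throughout, for Rotorod TD50: mice on rotorod: neurological deficit scored when the animal cannot keep balance for 1 min in every one of three trials on a 1-inch knurled rod turning at 6 rpm.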
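Throughout, for Rotorod toxicity: mice on rotorod: neurological deficit scored when the animal cannot keep balance for 1 min in every one of three trials on a 1-inch knurled rod turning at 6 rpm.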
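Throughout, for TPE by the rotorod test: mice on rotorod: neurological deficit scored when the animal cannot keep balance for 1 min in every one of three trials on a 1-inch knurled rod turning at 6 rpm.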
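Throughout, for time of peak effect (TPE), rotorod toxicity test: mice on rotorod: neurological deficit scored when the animal cannot keep balance for 1 min in every one of three trials on a 1-inch knurled rod turning at 6 rpm.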

Clc1ccc(-n2nncc2-c2cccnc2)cc1 [Compound 10, 1-(para-chlorophenyl)-5-(3-pyridyl)-1H-1,2,3-triazole]
signs of neurological deficit [1]: do not exhibit significant signs of neurological deficit | effectiveness by the sc Bic test [2]: ineffectiveness; also recorded: ineffective in doses up to 300 mg/kg | effectiveness by the sc Pic test [3]: ineffectiveness; also recorded: ineffective in doses up to 300 mg/kg | effectiveness by the sc Strych test [4]: ineffectiveness; also recorded: ineffective in doses up to 300 mg/kg | HD50 (righting reflex) [5]: 525.98(473.77-564.48) mg/kg | time of peak toxicity (TPE), righting reflex [5]: 6 h | TD50 ([5]; HD50 (righting reflex)): 526 mg/kg | five-day oral LD3 ([6]; male rats): < 300 mg/kg | five-day oral LD3 ([6]; rat, in vivo, po, 7200 min): > 300 mg/kg | toxicity, male vs female rats ([6]; rats, chronic): more toxic in male than in female rats | MES test, animals protected ([7]; acute (single dose, 50 mg/kg) control group, 50 mg/kg): 6 of 8 protected and 6 of 8 rats protected | MES test, animals protected ([7]; chronic-treated group, five daily doses of 50 mg/kg): 1 of 8 protected | tolerance to the anticonvulsant effects ([7]; five days): significant tolerance occurs within this period of time | hexobarbital sleep time (hexobarbital sleep time; acute (single dose) control group): 16.3 ± 1.2 min | hexobarbital sleep time (hexobarbital sleep time; chronic-treated group): 15.0 ± 2.0 min | cytochrome P-450 (cytochrome P-450; chronically treated rats): 0.988±0.096 n moles/mg | cytochrome P-450 (cytochrome P-450; [22]): 0.720±0.054 n moles/mg | increase in liver cytochrome P-450 (cytochrome P-450; rats, chronic vs acute): 37% | p-nitroanisole O-demethylase ([8]; chronically treated rats): 0.640±0.098 n moles/mg/min | p-nitroanisole O-demethylase [8, 22]: 0.261±0.035 n moles/mg/min | increase in p-nitroanisole O-demethylase ([8]; rats, chronic vs acute): 145% | cytochrome C reductase (cytochrome C reductase; chronically treated rats): 219±24 n moles/mg/min | cytochrome C reductase (cytochrome C reductase; [22]): 157±11 n moles/mg/min | increase in cytochrome C reductase (cytochrome C reductase; rats, chronic vs acute): 40% | oral absorption [9]: adequately absorbed in mice after oral administration | toxicity (300 mg/kg, four hours after administration): one of two animals | Rotorod toxicity (300 mg/kg, thirty minutes after administration): all four animals | time of peak effect (TPE), rotorod toxicity test (mice, i.p.): 60 min | TD3 (mice, i.p., MES): 175 | TD3 (mice, i.p., sc Met): 175 | Rotorod TD50 [23]: 244.51(221.82-275.17) mg/kg and 244.51(222.82-275.17) mg/kg | TD3 (mice, oral, MES): 173 | TD3 (mice, oral, sc Met): 173 | TPE by the rotorod test (mice, p.o.): six | TD50 (mice, p.o., 95% confidence interval): 729.08 (492.47-1009.17) mg/kg | selectivity ratio (in vivo [10]): 5.54 | selectivity ratio (in vivo [11]; ip): 9.07 | selectivity ratio (in vivo [11]; po): 5.37 | TD50 (in vivo [12]; ip): 245 mg/kg | TD50 (in vivo [12]; po): 729 mg/kg | LD50 at 24 h (in vivo [13]): 569 mg/kg | LD50/HD50 ratio [14]: 1.08 | LD50/TD50 ratio [14]: 2.33 | oral ED50/i.p. ED50 ratio, MES ([15]; mice): 2.00 | toxicity of doses giving 97% protection, MES or sc Met test ([15]; mice and rats, oral): toxic doses are required to protect 97% of animals | time of peak effect (TPE), anticonvulsant tests ([15]; mice i.p., anticonvulsant tests (MES, sc Met)): 30 min | mice protected in the MES test at nontoxic doses ([15]; mice, i.p.): 97% | protective index (TD50/ED50) by the MES test ([15]; mice, i.p.): 3.72 | ED97 ([15]; mice, i.p.): 145 | Safety ratio (TD3/ED97) ([15]; mice, i.p.): 1.2 | MES ED50 [15, 23]: 65.76 mg/kg and 65.76(51.82-83.19) mg/kg | ED97 ([15]; mice, oral): 275 | Safety ratio (TD3/ED97) ([15]; mice, oral): 0.6 | MES ED50 ([15]; mice, p.o.): 131.67 mg/kg | potency relative to phenobarbital, MES test ([15]; mice, p.o.): 1/6 | potency relative to phenytoin, MES test ([15]; mice, p.o.): 1/15 | selectivity ratio [16]: 0.07 | ED97 ([17]; Rattus norvegicus, po): 215 mg/kg | ED50 ([17]; Rattus norvegicus, po, read-out: MES ED50): 49.9 mg/kg | 97% protection by the MES and sc Met tests in nontoxic doses ([17]; rats, oral): do not provide 97% protection | TPE by the MES and sc Met tests ([17]; rats, p.o.): four | oral ED50/i.p. ED50 ratio, sc Met ([18]; mice): 5.03 | toxicity of doses giving 97% protection, sc Met test ([18]; mice, i.p.): toxic doses are required | ED97 ([18]; mice, i.p.): 900 | sc Met ED50 [18, 23]: 26.95 mg/kg and 26.95(9.89-55.08) mg/kg | ED97 ([18]; mice, oral): 980 | sc Met ED50 ([18]; mice, p.o.): 135.67 mg/kg | potency by the sc Met test in mice relative to rats ([18]; oral administration): about 21/2 | ED97 ([19]; oral, sc Met): > 10000 | Safety ratio (TD3/ED97) ([19]; oral, sc Met): 0.002 | sc Met ED50 ([19]; p.o.): 329.18 mg/kg | Profile of acute toxicity, 1 x TD50 ([20]; 1TD50): decreased motor activity, rotorod toxicity, ataxia, and decreased respiration; also recorded: normal after 24 hours; also recorded: normal at 24 hrs | Profile of acute toxicity, 2 x TD50 ([20]; 2TD50): cyanosis, muscle relaxation, and loss of righting reflex; also recorded: dead after 24 hours | Profile of acute toxicity, 4 x TD50 ([20]; 4TD50): displayed all the symptoms characteristic of those given 1TD50 and 2TD50's of the test drug; however, the symptoms were more intense; also recorded: dead 4 hours after drug administration and the other was dead at 24 hours | neurotoxicity in rats relative to mice ([21]; oral administration): approximately 16 times | TD50 ([21]; rat, in vivo, po): 44.5 mg/kg | TD3 ([21]; rats, MES): 16 | TD3 ([21]; rats, sc Met): 16 | TPE by the toxicity test ([21]; rats, p.o.): two | TD50 ([21]; rats, p.o., 95% confidence interval): 44.48 (32.78-62.61) mg/kg
